# Reference: ChEMBL document CHEMBL1137043, “Development of a polyvalent assay system for lead identification” (Bioorg Med Chem Lett, 2004)
# *1 amine or outer side, *2 acyl side, *3 side chain or, on linkers, in order; H or OH if unused. Where a SMILES comes first, the peptide text is derived from it. [ ]: non-standard residue; d: D form. X1 = O=C(O)COc1ccc(C[C@H](N[*:1])C(=O)[*:2])cc1C(=O)O
# Target: T1, Tyrosine-protein phosphatase non-receptor type 1 (Homo sapiens, UniProt P18031)
# T1 sequence (P18031 whole entry): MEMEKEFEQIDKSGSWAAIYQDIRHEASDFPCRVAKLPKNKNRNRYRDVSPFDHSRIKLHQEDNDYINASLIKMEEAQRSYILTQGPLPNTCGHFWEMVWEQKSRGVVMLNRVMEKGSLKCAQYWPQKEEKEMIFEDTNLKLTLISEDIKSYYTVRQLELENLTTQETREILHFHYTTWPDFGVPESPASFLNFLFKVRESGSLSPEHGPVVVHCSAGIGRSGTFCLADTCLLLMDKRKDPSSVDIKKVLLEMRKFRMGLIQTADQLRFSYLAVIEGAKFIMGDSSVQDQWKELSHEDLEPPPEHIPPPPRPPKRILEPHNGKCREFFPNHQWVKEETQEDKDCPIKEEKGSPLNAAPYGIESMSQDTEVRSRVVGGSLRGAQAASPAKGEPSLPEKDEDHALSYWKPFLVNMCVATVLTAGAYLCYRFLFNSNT
# Assay: In vitro inhibitory concentration against Protein-tyrosine phosphatase 1B hydrolysis of p-nitrophenol phosphate
row,Ki [µM],SMILES
1,11,CC[C@@H](C)[C@H](NC(=O)C(Cc1ccc(OCC(=O)O)c(C(=O)O)c1)NC(=O)[C@H](CC(=O)O)NC(C)=O)C(=O)N[C@@H](CCCN=C(N)N)C(N)=O (stereo partly drawn)
2,41,CCC(C)[C@H](NC(=O)C(Cc1ccc(OCC(=O)O)c(C(=O)O)c1)NC(=O)[C@H](CC(=O)O)NC(C)=O)C(N)=O (stereo partly drawn)
3,18,CC[C@H](C)[C@H](NC(=O)[C@H](Cc1ccc(OCC(=O)O)c(C(=O)O)c1)NC(=O)[C@H](CC(=O)O)NC(C)=O)C(=O)N[C@@H](CCCN=C(N)N)C(=O)NCC(=O)NCC(=O)NCC(N)=O (Ac-D[X1]IRGGG-NH2)
